# Source: patent US12268683B2, “Compounds and methods for synergistic activation of M channels” (THE REGENTS OF THE UNIVERSITY OF CALIFORNIA, priority 2018, dated 2025)
# Biological target: KCNQ2-W236L/KCNQ3 (Homo sapiens, UniProt O43525+O43526, W236L)
# Test: TEVC of KCNQ2-W236L/KCNQ3 channels
# Assay type: cell-based
# Source text: As previously described (12), we generated cRNA transcripts encoding human KCNA1, KCNE1, KCNE2, KCNE3, KCNQ1, KCNQ2, KCNQ3, KCNQ4 or KCNQ5 by in vitro transcription using the T7 polymerase mMessage mMachine kit (Thermo Fisher Scientific), after vector linearization, from cDNA sub-cloned into plasmids incorporating Xenopus laevis β-globin 5′ and 3′ UTRs flanking the coding region to enhance translation and cRNA stability. We quantified cRNA by spectrophotometry. We generated mutant KCNQ2 and KCNQ3 cDNAs by site-directed mutagenesis with a QuikChange kit (Stratagene, San Diego, Calif.) and prepared the cRNAs as above. We injected defolliculated stage V and VI Xenopus laevis oocytes (Ecocyte Bioscience, Austin, Tex. and Xenoocyte, Dexter, Mich., US) with KCNE and/or KCNQ cRNAs (5-20 ng). We incubated the oocytes at 16° C. in Barth's saline solution (Ecocyte) containing penicillin and streptomycin, with daily washing, for 3-5 days prior to two-electrode voltage-clamp (TEVC) recording.
# We performed TEVC at room temperature using an OC-725C amplifier (Warner Instruments, Hamden, Conn.) and pClamp10 software (Molecular Devices, Sunnyvale, Calif.) 2-5 days after cRNA injection as described in the section above. For recording, we placed the oocytes in a small-volume oocyte bath (Warner) and viewed them with a dissection microscope. We sourced chemicals from Sigma unless otherwise stated. We studied effects of 1% cilantro extract and of nine compounds previously identified in cilantro extract. Vanillic acid and 3,4-Dihydroxybenzoic acid were each solubilized in 100% ethanol at a stock concentration of 100 mM; the other compounds were solubilized directly in bath solution. We initially screened for KCNQ2/3 channel activity using 100 μM concentrations of each of the nine components, then conducted dose responses where appropriate. […] We recorded currents in response to voltage pulses between −120 or −80 mV and +40 mV at 20 mV intervals from a holding potential of −80 mV, to yield current-voltage relationships, current magnitude, and for quantifying activation rate. We analyzed data using Clampfit (Molecular Devices) and Graphpad Prism software (GraphPad, San Diego, Calif., USA); values are stated as mean±SEM. […]
# We generated cRNA transcripts encoding human KCNQ1, KCNQ2, KCNQ3, KCNQ4, KCNQ5 or GLRA1 (NM_001146040) (GenScript, Piscataway, N.J., USA) by in vitro transcription using the T7 polymerase mMessage mMachine kit (Thermo Fisher Scientific), after vector linearization, from cDNA sub-cloned into plasmids incorporating Xenopus laevis β-globin 5′ and 3′ UTRs flanking the coding region to enhance translation and cRNA stability. We quantified cRNA by spectrophotometry. […]
SMILES,effect on KCNQ2-W236L/KCNQ3 (in words),potency reduction by KCNQ2-W236L relative to KCNQ3-W265L mutation,maximal shift in ΔV0.5activation ((E)-2-dodecenal),"EC50 (ΔV0.5activation, read-out: EC50 of (E)-2-dodecenal)"
CS(=O)(=O)N(CC(=O)O)c1cccc(F)c1 [3FMSG],independent of KCNQ2-W236,,,
CCCCCCCCC/C=C/C=O [(E)-2-dodecenal],,20 fold,−9 mV,5.07 ± 0.5 µM
